For this test, the system named is HEK293T cells. Briefly: flavopiridol time course, sci-RNA-seq with hash ladder. Type of test: cell-based, human. As to conditions: 300 nM, longest exposure times. The method, then: For the flavopiridol time course experiment, HEK293T cells were seeded onto a 6-well culture plate at a density of 4×10^5 cells per well. For the HDAC inhibitor time course and HDAC inhibitor and Dexamethasone co-treatment experiments, A549 cells were seeded onto a 96-well culture plate at a density of 2.5×10^4 cells per well.
The cells were grown for 24 hours after they were seeded onto the cell culture plates. For the flavopiridol time course experiment, 0.9 uL of 1 mM flavopiridol was added to each 6 well to attain final concentration of 300 nM. […]
The capture of hash ladder by nuclei is determined by factors including, but not limited to, sample processing and sequencing depth. […] We empirically determined that the ladder should be constructed so that around 6 million hash molecules are captured per nuclei (assuming that each nucleus takes up equal amount of hash molecules in the solution) to obtain a median hash UMI count of 1,000-5,000. […]
For the harvest of cells, media was removed and cells were washed with DPBS and dissociated off the plate using trypLE. […] Cells were then counted with a hemocytometer using 0.4% Trypan Blue. […]
Isolated and hashed nuclei were then permeabilized in permeabilization buffer (0.25% Triton-X in NSB) for 3 minutes on ice and then spun down. […] Cell counts were obtained by staining nuclei with 0.4% Trypan Blue (Sigma-Aldrich) and counted using a hemocytometer. […]

The structures appear in SMILES notation.

As for `CN1CC[C@H](c2c(O)cc(O)c3c(=O)cc(-c4ccccc4Cl)oc23)[C@H](O)C1` [flavopiridol], the “RNA recovery per-cell (total RNA UMI counts)” value is recorded as “greatest reduction in RNA recovery per-cell”.

Values taken from patent publication US12624350B2, “High-throughput single-nuclei and single-cell libraries and methods of making and of using” (ILLUMINA, INC., priority 2019, dated 2026).
